The record followed here is patent publication US11191804B2, “Cytocidal agent” (FUJITA ACADEMY, priority 2018, dated 2021).

The nature of series [1]: Body weight of endometriosis model mice after single intraperitoneal administration. Format: in vivo, mouse. Conditions: for Body Weight, 7th day: 7 days after cell transplantation, before peptide administration (baseline); for Body Weight, 7th day / Body Weight, 8th day: mean ± standard error. As for the experimental part: Seven days after the A431-CNGB3-myc cells were intraperitoneally transplanted, 0.5 mL of physiological saline solution warmed to 37° C. was intraperitoneally administered to an endometriosis model mouse under isoflurane anesthesia, followed by performing massage. Immediately after the massage, a solution of the K14D-H5D peptide dissolved in physiological saline was intraperitoneally administered. The K14D-H5D peptide was administered at a dose of 0 mg/10 mL/kg (control) (n=7), 5 mg/10 mL/kg (n=8), or 10 mg/10 mL/kg (n=8) per mouse body weight
Each mouse was weighed 7 days after the A431-CNGB3-myc cells were intraperitoneally transplanted, before K14D-H5D peptide administration and before exsanguination.
The mouse group in which the dose of the K14D-H5D peptide per mouse body weight was 0 mg/10 mL/kg was represented as G1 group, the mouse group in which the dose of the K14D-H5D peptide per mouse body weight was 5 mg/10 mL/kg was represented as G2 group, and the mouse group in which the dose of the K14D-H5D peptide per mouse body weight was 10 mg/10 mL/kg was represented as G3 group. […] In the Table, “7th day” in the “Body Weight” column is the body weight 7 days after the intraperitoneal transplantation of the A431-CNGB3-myc cells, which was before the administration of the K14D-H5D peptide, and “8th day” is the body weight 24 hours after the administration of the K14D-H5D peptide.

The test system of the next series is OVCAR3-Luc cells. The series can be described thus: Cytocidal activity by ATP amount (CellTiter-Glo assay kit). Format: cell-based. As for the experimental part: The tumor tissue to be transplanted to the mouse was prepared by culturing an ovarian cancer cell line (OVCAR3-Luc cells, transferred from another facility) into which the luciferase gene had been introduced, and used. The OVCAR3-Luc cells were cultured in a culture medium containing a RPMI medium 1640 (11875-093: manufactured by Gibco) containing 10% inactivated FBS (manufactured by Corning) at 37° C. and under a 5 vol % carbon dioxide environment. Passaging was carried out every 2-3 days.
(§1) The cytocidal activity of each peptide was evaluated by measuring the ATP amount in the cells treated with each peptide using CellTiter-Glo (registered trademark) assay kit (manufactured by Promega).
(§2) Specifically, first, the A431-CNGB3-myc cells or the OVCAR3-Luc cells after 3 to 4 passages were seeded in a 96-well plate (manufactured by Corning/Costar, Lot No. 00515003) so as to adjust the cell concentration to 1×10^4 cells/well. […] Luminescence (RLU: RELATIVE LIGHT UNITS) of each reaction solution after standing at room temperature was measured using a Synergy H1 hybrid multimode microplate reader (manufactured by BioTek). The luminescence intensity of the reaction solution is an index of the ATP amount. The smaller the luminescence intensity of the reaction solution, the smaller the ATP amount and the stronger the cytocidal activity of the administered peptide. […]

A further series concerns A431-CNGB3-myc cells. Described as above. Format: cell-based, human. Conditions: peptide 2.34 to 300.0 μM, 24 hours, FIG. 1. As for the experimental part:
A transformed cell (A431-CNGB3-myc cell) obtained by introducing a gene encoding human CNGB3, in which an myc tag was fused in a C-terminal, into an A431 cell (human epithelial-like cell cancer-derived cell strain) and forcibly expressing thereof was prepared as an endometriosis model cell.
as §1
as §2, with “peptide. All trials were measured in triplicate, and the average value thereof was taken as the emission intensity (RLU) of each reaction solution.” for “peptide.”

Where no end group is shown, it is not given here. [ ]: non-standard residue; d: D form.

Take `CC(C)C[C@@H](NC(=O)[C@@H](Cc1c[nH]cn1)NC(=O)[C@@H](C)NC(=O)[C@@H](CC(C)C)NC(=O)[C@@H](Cc1c[nH]cn1)NC(=O)[C@@H](CCCCN)NC(=O)[C@@H](C)NC(=O)[C@@H](CC(C)C)NC(=O)[C@@H](CCCCN)NC(=O)[C@@H](C)NC(=O)[C@@H](CC(C)C)NC(=O)[C@@H](CCCCN)NC(=O)[C@@H](CCCCN)NC(=O)[C@@H](C)NC(=O)[C@@H](CC(C)C)NC(=O)[C@@H](CCCCN)NC(=O)[C@@H](C)NC(=O)[C@@H](CC(C)C)NC(=O)[C@H](N)CCCCN)C(=O)O` [Peptide K14D-H5D, KLAKLAK-KLAKLAK-HLAHL]: the “change in body weight” value in series [1] (5 or 10 mg/10 mL/kg single i.p., 24 hours after administration, depending on the dose) is “slight decrease”. Further, the “Body Weight, 7th day” value in series [1] (G2 group, 5 mg/10 mL/kg i.p.) worked out at 20.1 ± 0.4 g; in series [1] (G3 group, 10 mg/10 mL/kg i.p.), 20.0 ± 0.4 g. For the same compound, the “Body Weight, 8th day” value in series [1] (G2 group, 5 mg/10 mL/kg single i.p., 24 hours after administration) came out at 19.2 ± 0.5 g; in series [1] (G3 group, 10 mg/10 mL/kg single i.p., 24 hours after administration), 17.5 ± 0.3 g.
As for “KLAKLAK-HLAHLAH-HLAHLAH-HLAH ([dK][dL][dA][dK][dL][dA][dK][dH][dL][dA][dH][dL][dA][dH][dH][dL][dA][dH][dL][dA][dH][dH][dL][dA][dH]) [Peptide K7D-H18D, reference compound]”, the “relative ATP amount (%) / cytocidal activity” value was “decreased in a dose-dependent manner” with OVCAR3-Luc cells (OVCAR3-Luc cells, peptide 2.34 to 300.0 μM, 24 hours, FIG. 2) and “decreased in a dose-dependent manner” in the series with A431-CNGB3-myc cells.
On to “KLAKLAK-KLAKLAK-HLAHL-VRRADNRPG (KLAKLAKKLAKLAKHLAHLVRRADNRPG; not fully specified (some residues); printed as KLAKLAK-KLAKLAK-HLAHL-VRRADNRPG; also: D-amino acids, positions not given here) [Peptide K14D-H5D-Z13]”, for which the “cytocidal activity compared with the K14D-H5D peptide” value with OVCAR3-Luc cells (OVCAR3-Luc cells having no CNGB3 on the cell surface, FIG. 3) is listed as “the same cytocidal activity”.
